In test [1] the target is T1, Exodeoxyribonuclease V (Escherichia coli (strain K12), UniProt P04993+P07648+P08394).
T1 sequence (P04993 whole entry): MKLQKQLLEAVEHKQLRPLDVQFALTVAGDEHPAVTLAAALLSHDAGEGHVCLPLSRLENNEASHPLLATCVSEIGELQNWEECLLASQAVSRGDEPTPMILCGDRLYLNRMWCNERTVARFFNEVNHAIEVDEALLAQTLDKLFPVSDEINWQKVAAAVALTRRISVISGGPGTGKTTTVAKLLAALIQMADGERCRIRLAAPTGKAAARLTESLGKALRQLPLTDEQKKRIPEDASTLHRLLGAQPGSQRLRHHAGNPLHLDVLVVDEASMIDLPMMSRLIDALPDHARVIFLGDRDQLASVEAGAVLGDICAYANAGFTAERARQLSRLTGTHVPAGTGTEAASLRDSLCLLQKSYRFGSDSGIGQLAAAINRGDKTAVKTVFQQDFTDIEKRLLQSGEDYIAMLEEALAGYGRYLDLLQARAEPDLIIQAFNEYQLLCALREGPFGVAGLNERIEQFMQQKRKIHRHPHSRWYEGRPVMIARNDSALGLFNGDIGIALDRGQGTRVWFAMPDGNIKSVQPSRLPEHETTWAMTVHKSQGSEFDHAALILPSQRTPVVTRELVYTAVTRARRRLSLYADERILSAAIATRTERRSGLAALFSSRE
T1 sequence (P07648 whole entry): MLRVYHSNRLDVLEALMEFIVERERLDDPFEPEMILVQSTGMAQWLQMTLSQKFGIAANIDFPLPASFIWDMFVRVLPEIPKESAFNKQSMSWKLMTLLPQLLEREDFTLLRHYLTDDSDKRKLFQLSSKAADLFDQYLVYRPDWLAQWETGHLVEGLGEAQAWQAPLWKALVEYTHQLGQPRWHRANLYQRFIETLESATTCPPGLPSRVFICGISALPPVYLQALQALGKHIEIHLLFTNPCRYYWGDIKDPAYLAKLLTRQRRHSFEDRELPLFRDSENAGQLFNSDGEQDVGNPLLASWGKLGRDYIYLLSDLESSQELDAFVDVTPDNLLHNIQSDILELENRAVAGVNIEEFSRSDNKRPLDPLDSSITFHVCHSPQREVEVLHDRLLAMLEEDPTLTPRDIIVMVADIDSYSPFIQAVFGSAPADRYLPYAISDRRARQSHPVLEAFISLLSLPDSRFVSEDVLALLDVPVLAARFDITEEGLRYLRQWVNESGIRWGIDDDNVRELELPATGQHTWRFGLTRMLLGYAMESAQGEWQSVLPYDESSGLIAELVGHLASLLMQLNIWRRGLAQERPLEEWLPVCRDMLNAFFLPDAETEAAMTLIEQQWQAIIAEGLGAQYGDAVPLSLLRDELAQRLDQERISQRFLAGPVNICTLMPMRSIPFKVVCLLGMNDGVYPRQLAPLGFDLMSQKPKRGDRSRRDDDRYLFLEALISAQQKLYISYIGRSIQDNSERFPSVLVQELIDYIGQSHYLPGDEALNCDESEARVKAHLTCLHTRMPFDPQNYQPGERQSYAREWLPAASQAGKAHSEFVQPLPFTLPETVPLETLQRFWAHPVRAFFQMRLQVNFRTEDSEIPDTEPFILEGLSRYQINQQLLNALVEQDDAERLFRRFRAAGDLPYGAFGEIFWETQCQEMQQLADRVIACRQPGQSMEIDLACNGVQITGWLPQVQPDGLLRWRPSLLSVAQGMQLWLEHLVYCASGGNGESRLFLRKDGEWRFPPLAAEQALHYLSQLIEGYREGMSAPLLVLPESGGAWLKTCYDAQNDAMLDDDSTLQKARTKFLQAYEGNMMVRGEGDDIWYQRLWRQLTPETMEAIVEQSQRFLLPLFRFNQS
T1 sequence (P08394 whole entry): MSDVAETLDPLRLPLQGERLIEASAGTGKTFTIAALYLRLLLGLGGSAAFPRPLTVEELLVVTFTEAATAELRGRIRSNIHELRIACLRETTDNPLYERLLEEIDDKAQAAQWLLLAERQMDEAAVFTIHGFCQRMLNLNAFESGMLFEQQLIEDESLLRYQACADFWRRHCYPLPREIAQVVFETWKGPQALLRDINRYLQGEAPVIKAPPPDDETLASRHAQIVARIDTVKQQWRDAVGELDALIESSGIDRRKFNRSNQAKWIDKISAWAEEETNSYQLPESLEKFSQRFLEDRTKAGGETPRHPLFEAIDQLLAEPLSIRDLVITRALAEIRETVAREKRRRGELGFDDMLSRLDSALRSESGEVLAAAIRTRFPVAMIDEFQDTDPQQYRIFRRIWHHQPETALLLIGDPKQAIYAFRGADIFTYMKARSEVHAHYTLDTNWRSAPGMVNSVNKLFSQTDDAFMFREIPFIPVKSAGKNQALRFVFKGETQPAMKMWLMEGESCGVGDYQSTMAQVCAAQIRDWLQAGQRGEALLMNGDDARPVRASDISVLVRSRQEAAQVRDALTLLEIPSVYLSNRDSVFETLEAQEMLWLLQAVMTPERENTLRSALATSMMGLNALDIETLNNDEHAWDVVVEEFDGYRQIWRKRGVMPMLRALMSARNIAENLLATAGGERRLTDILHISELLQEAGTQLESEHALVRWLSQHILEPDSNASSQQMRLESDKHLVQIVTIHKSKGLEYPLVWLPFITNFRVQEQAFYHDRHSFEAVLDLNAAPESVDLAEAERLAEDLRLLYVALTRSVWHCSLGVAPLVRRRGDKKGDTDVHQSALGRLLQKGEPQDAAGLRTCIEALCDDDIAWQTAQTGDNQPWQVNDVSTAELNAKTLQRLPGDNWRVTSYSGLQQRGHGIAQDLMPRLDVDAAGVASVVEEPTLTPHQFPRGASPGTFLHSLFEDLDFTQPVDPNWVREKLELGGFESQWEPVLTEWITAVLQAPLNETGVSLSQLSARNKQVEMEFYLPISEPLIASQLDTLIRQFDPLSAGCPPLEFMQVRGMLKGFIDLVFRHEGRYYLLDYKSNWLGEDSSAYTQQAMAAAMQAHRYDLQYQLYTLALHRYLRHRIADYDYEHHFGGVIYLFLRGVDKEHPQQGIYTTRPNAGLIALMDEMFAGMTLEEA
Put plainly: E. coli RecBCD inhibitors, dose response, counter-screen for AddAB inhibitor project, absorbance, V66 E. coli, mutant T4 phage (AID 492957). The class given is functional, cell-based, Escherichia coli str. K-12 substr. MG1655.

For test [2], the system named is INS1. In words: beta cell apoptosis inhibitors, cytokine rescue, dose response, luminescence, retest (AID 449756).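 Note: cell death triggered by IL-1 beta plus TNF-alpha plus IFN-gamma mixture; protective hits raise ATP signal compared with cytokine alone wells.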 The class given is functional, cell-based. The settings on record: Rattus norvegicus.

Calls of active or inactive are those of the source.

Regarding `O=C(/C=C/c1cccs1)NC(=S)NNC(=O)c1ccccc1O`, in test [1], the IC50 is 114 µM (inactive).

In the case of `CC(=O)N(Cc1ccc(F)cc1)C1=C(NCCc2ccccc2)C(=O)c2ccccc2C1=O`, the AC50 in test [2] is 2.18 µM (active).

Consider `CCCCC(=O)NC(c1ccccc1)c1ccc2cccnc2c1O` (centres undefined), for which, in test [1], the IC50 is > 118 µM (inactive). For the same compound, the AC50 in test [2] is 0.614 µM (active).

A word on the IC50: it is the concentration that gives 50% inhibition. By AC50 is commonly meant the midpoint of the concentration-response curve, whichever way the signal moves.

For the origin of these results see ChEMBL document CHEMBL1201862, “PubChem BioAssay data set” (2004).
